According to US20250170224A1, “METHODS AND COMPOSITIONS FOR TREATING MICROGLIAL DYSFUNCTION AND IMPROVING METABOLIC DYSFUNCTION” (Ultimate Medicine AG, priority 2021, published 2025):

Tested on: microglia
Assay: CML given intraperitoneally or by oral gavage to young-adult and aged SPF mice; microglia analysed
Format: in vivo, mouse
Description: Specific pathogen-free (SPF) and germ-free (GF) housed C57BL/6 mice were analyzed at 6-10 weeks of age (young-adult) and 96-104 weeks of age (aged). Mice of the aged group in the nontargeted metabolomics analysis were 17-18 months old. Except for nontargeted metabolomics and microbiota profiling, where only male mice were used, all groups included mice from both sexes. Mice were housed under a 12-hour light/12-hour dark cycle and temperatures of 18-23° C. with 40-60% humidity, with food and water given ad libitum. To avoid cage effects, mice from at least three different cages per experimental group were analyzed. […] For modulation of CML in aged animals, 18-month-old SPF housed C57BL/6 mice were treated orally every third day for 10 weeks with vehicle (20% hydroxypropyl-p-cyclodextrin in 1× phosphate-buffered saline (PBS)), 10 mg kg^−1 ellagic acid (EA) or 3,000 U kg^−1 intestinal alkaline phosphatase (IAP). To assess in vivo intestinal permeability, tracer fluorescein isothiocyanate (FITC)-labeled dextran (4 kDa: Sigma-Aldrich) was used. Briefly, mice were deprived of food 4 hours before and both food and water 4 hours after oral gavage using 200 μl of 80 mg ml^−1 FITC-dextran. Blood was collected retro-orbitally after 4 hours and fluorescence intensity was measured on fluorescence plates using an excitation wavelength of 493 nm and an emission wavelength of 518 nm. To assess in vivo intestinal permeability to CML, mice were treated with […] CML (0.36 mM). Blood was collected retro-orbitally immediately before and 4 hours after treatment. CML translocated into the circulation was measured by liquid chromatography-mass spectrometry (LC-MS). All animal experiments were approved by the local administration in Germany (Regierungsprasidium Freiburg) and were performed in accordance with the respective national, federal, and institutional regulations and the guidelines of the Federation of European Laboratory Animal Science Associations.
Brains were fixed in 4% PFA, dehydrated in 30% sucrose and embedded in Tissue-Tek OCT compound (Sakura Finetek). Fourteen micrometer-thick cryosections were obtained using a cryostat (SM2000R; Leica Biosystems). FFPE tissue from mouse and human brains was sectioned by a microtome to obtain 5-pm sections. Epitopes were unmasked by heat-induced antigen retrieval at pH 6. Sections were blocked with PBS containing 5% bovine serum albumin (BSA) and permeabilized with 0.5% Triton X-100 in blocking solution. The following primary antibodies were incubated overnight at 4° C.: rabbit anti-Iba-1 (1:500 dilution; WAKO); guinea pig anti-Iba-1 (1:1,000 dilution; Synaptic Systems); anti-iNOS (1:500 dilution; Thermo Fisher Scientific) or anti-CML (1:500; Abcam). Secondary antibodies (Alexa Fluor 488-, 568- or 647-conjugated, 1:500 dilution) were incubated for 2 hours at room temperature. For three dimensional (3D)-reconstruction of microglia, free-floating 30-pm cryosections from brain tissue were labeled for 48 hours with anti-Iba-1 (1:500 dilution) at 4° C., followed by Alexa Fluor 647-conjugated secondary antibody at a dilution of 1:500 overnight at 4° C. […] For 3D-reconstruction of microglia, images were analyzed using Imaris v.8.02 (Bitplane) with at least five cells per mouse. All other images were processed and analyzed with Photoshop CC 2015 (Adobe) or ImageJ v.1.53f (National Institutes of Health). […]

[1] = aged mice, both intraperitoneal and oral gavage routes

## N[C@@H](CCCCNCC(=O)O)C(=O)O [CML, N^6-carboxymethyllysine]
[1]
  cellular ROS in microglia: significantly exacerbated the age-related increase in cellular ROS
  metabolic function (cellular ATP) in microglia: diminished metabolic function
Aged mice, i.p. versus oral gavage
  effect of route of CML administration on percentage of CML+ microglia: no effect
young-adult mice
  CML+ microglia in the cortex, intraperitoneal rather than oral gavage: more CML^+ microglia in the cortex
young-adult mice, i.p. versus oral gavage
  effect on cellular ROS and metabolic function in microglia: only detectable after intraperitoneal administration
